Reference: patent US6864285B1, “Covalent derivatives of alkanolamides of monocarboxylic and dicarboxylic acids functionally active on the CB2 cannabinoid receptor” (Innovet Italia S.r.l., priority 1999, dated 2005)
Values after ≈ are worked out from the molar mass of the structure shown. Where two headings read alike, the source gives them in different places.

Columns and labels:
[1] = Lipid/water partition parameter RM from thin-film chromatography on silica gel; type: physicochemical
Procedure: The chemical and physical characteristics of the derivatives according to the invention were evaluated by quantitative measurement of the lipid/water partition parameter.
A useful parameter for evaluating the properties of a compound in relation to its possible absorption is in fact constituted by the coefficient of partition between the lipid phase and the aqueous phase, which is considered to be an expression of its lipophilicity and its degree of hydrophilicity. […] For the purpose of evaluating the characteristics of the derivatives of the invention, the partition parameter RM between the lipid and the aqueous phase, extrapolated from thin-film partition chromatography, was calculated; this parameter is commonly used to evaluate the lipophilic characteristics of compounds (Tomlinson E. J. Chromatogr. 1975, 113, 1) and is commonly used, for example, for local anaesthetics, in which a correlation has been shown between this parameter and biological activity (Bachrata M. et al. J. Chromatogr. 1979, 171, 29-36).
The partition parameter RM between the lipid phase and the aqueous phase was calculated both for the derivatives and for the non-substituted alkanolamides, from the Rf value obtained by thin-film chromatography on silica gel (particles of […], mean porosity 60 Å, thickness 0.25 mm on glass plate) in accordance with the formula: RM=log (1/Rf−1) and the ΔRM was obtained from the difference between the RM coefficients of the derivative and of the corresponding alkanolamide.

CB2 receptor [2] = molecular target: T1, CB2 receptor (Rattus norvegicus, UniProt Q9QZN9); assay: Stimulation of cyclic AMP (cAMP) by forskolin in RBL-2H3+ cells; type: cell-based; conditions: 1 μM forskolin
T1 construct: endogenous in cells; host or cells: rat RBL-2H3+ leukemic basophilic cells
T1 sequence (Q9QZN9 1-360): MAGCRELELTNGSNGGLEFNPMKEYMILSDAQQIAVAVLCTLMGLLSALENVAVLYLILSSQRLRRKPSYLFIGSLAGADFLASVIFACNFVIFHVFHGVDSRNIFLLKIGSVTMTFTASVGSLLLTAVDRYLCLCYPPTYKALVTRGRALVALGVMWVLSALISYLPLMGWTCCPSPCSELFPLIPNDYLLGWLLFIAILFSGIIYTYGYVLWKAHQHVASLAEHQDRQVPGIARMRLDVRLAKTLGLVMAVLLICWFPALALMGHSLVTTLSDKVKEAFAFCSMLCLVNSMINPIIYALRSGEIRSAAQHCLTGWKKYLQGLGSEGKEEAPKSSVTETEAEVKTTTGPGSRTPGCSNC
Procedure: Effect of alkanolamide molecules on the stimulation of cyclic AMP (cAMP) by forskolin.
The tests were performed with the aim of checking whether the binding of the molecules of the present invention to the CB2 receptor has functional significance.
It is in fact known that the function activation of the CB2 receptor brings about, at intracellular level, inhibition of the enzymatic activity of adenylate cyclase and a reduction in the levels of the second-messenger cAMP, resulting in an increase in the conductance of the channels to potassium and an inhibition of proteic phosphorylation (Childers S. R. et al. Biochem. Parmacol. 1996, 52: 819-827).
The dosages of cAMP were performed on RBL-2H3+ cells flowing together in Petri dishes with six wells (Falcon); the cells were stimulated for 10′ at 37° C. with 1 μM of forskolin (Fluka) in 400 μl of medium without serum, containing 20 mM HEPES, 0.1 mg/ml BSA and 0.1 mM 1-methyl-3-isobutyl xanthine (Sigma) and either ethanol or alkanolamide molecules with or without the addition of HU-210. After incubation, the cells were extracted and the levels of cAMP were evaluated with a suitable Amersham kit in accordance with the producer's method. The data were expressed in IC50 μM.

CB2 receptor [3] = molecular target: T1, CB2 receptor; assay: Binding of [3H]WIN55,212-2 to membranes of RBL-2H3+ cells; conditions: cell membranes, 300 pM ligand, 90' at 30° C.; read-out: Ki CB2 receptor RBL-2H3 + cells Lig. [3H]WIN55, 212-2
Description: (§1) Effect of alkanolamide molecules on the binding of the synthetic ligands of the CB2 and CB1 cannabinoid receptors, respectively.
(§2) Rat RBL-2H3+ leukemic basophilic cells, which selectively express the cannabinoid CB2 receptor, and mouse N18TG2 neuroblastoma cells which selectively express the CB1 cannabinoid receptor were used. The cells were cultivated as described above (Facci L. et al. (1995) Proc. Natl: Acad: Sci. U.S.A. 92:: 3376-3380; Bisogno T. et al. 1997 J. Biol. Chem., 272: 3315-3323). WIN 55,212.2 was used as the selectively agonist synthetic ligand for the CB2 receptor.
HU-210 was used as the selective […] for the CB2 receptor.
(§3) [^3H]SR141716A (55 Ci/mmol) was supplied by Amersham; [^3H]WIN55,212-2 (43 Ci/mmol) was supplied by NEN. The binding tests were performed with membranes of the cells resuspended in 50 mMol Tris pH 7.0 buffer; 2.5 mMol MgCl2, 0.8 mMol EDTA; 0.05% bovine serum albumin (BSA); 0.01% ethanol, in the presence of 100 μM of phenyl-methyl-sulphonyl fluoride (PMSF-Sigma), with the use, of 300 pM of [^3H]SR141716A and of [^3H]WIN55,212-2, respectively, as the ligand.
(§4) The membranes were incubated for 90′ at 30° C. and filtered on glass microfibre filters (GFC-Whatman) and the radioactivity was detected by liquid scintillation. The specific binding was calculated with the use of either 10 μM SR141716A or 10 μM HU-210.
(§5) The Ki values were calculated by Chang-Prusoff's equation and expressed as concentration μM.

[4] = Solubility in water and in organic solvents (chemical and physical characteristics); conditions: in words
CB1 receptor = molecular target: T2, CB1 receptor (Mus musculus, UniProt P47746); assay: Binding of [3H]SR141716A to membranes of N18TG2 cells; conditions: cell membranes, 300 pM ligand, 90' at 30° C.; read-out: Ki CB1 Receptor N18TG2 cells Lig. [3H]SR141716A
T2 construct: endogenous in cells; host or cells: mouse N18TG2 neuroblastoma cells
T2 sequence (P47746 whole entry): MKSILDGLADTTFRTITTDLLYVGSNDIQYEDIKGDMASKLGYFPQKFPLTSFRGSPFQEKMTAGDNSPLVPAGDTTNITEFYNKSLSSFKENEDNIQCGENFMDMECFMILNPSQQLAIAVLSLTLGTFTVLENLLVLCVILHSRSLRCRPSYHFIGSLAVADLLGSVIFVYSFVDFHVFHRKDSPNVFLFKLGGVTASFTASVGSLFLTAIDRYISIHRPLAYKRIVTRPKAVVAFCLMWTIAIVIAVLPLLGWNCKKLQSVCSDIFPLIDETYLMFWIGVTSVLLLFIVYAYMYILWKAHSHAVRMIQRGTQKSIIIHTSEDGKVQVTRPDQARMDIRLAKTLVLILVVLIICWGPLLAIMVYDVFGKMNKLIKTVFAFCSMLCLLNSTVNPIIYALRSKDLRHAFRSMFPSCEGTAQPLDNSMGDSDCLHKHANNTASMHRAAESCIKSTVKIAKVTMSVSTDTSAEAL
Description: as §1, §2
SR141716A was used as the selective antagonist for the CB1 receptor.
as §3, §4, §5

physchem = conditions: organic solvent or mixture

- ΔRM solvent 1 ([1]; Solvent 1: 100% ethyl acetate, RM of derivative minus RM of corresponding alkanolamide): −0.612
- RM solvent 1 ([1]; Solvent 1: 100% ethyl acetate, RM=log (1/Rf−1)): 0.176
- RF solvent 1 ([1]; Solvent 1: 100% ethyl acetate, silica gel): 0.40
- ΔRM solvent 2 ([1]; Solvent 2: heptane:isopropanol:ethyl acetate:H2O 40:20:50:2, RM of derivative minus RM of corresponding alkanolamide): −0.175
- RM solvent 2 ([1]; Solvent 2: heptane:isopropanol:ethyl acetate:H2O 40:20:50:2, RM=log (1/Rf−1)): −0.140
- RF solvent 2 ([1]; Solvent 2: heptane:isopropanol:ethyl acetate:H2O 40:20:50:2, silica gel): 0.58
- IC50 (CB2 receptor [2]; 10' at 37° C., read-out: IC50 on forskolin-stimulated cAMP): 1.9 µM
- IC50 (CB2 receptor [2]; + HU-210 (0.5 μM), read-out: IC50 on forskolin-stimulated cAMP with HU-210): > 20 µM
- Ki (CB2 receptor [3]): 0.001 ± 0.0008 µM
- solubility in water [4]: slightly soluble
- Ki (CB1 receptor): > 15 µM
- solubility (physchem; ethanol): 10 mg/mL (≈ 23.3 mM)
- solubility (physchem; n-octanol): 10 mg/mL (≈ 23.3 mM)
SMILES: CCCCCCCCCCCCCCCC(=O)NCCOC(=O)NCC(=O)OCC [Example 6, N-[2-[(ethoxycarbonylmethyl)aminocarbonyl]oxyethyl] hexadecanamide]
